Results on 31 molecules are retold here after patent US8222414B2, “Indole compounds as an inhibitor of cellular necrosis” (LG Life Sciences Ltd., priority 2007, dated 2012).

pEC50: −log10 of the molar value.

In the first test the test system is primary hepatocytes isolated from rats. The experiment in a line: Cell protective effects against doxorubicin in hepatocytes (WST-1 cell viability). Format: cell-based. As to conditions: Hepatocyte; primary rat hepatocytes pretreated with compound for 30 min, then doxorubicin; viability by WST-1 after 24-48 h. On the procedure: Various endogenous/exogenous attacks on the cells trigger the mechanisms of cell death which is broadly classified into two types, i.e. apoptosis or necrosis. Using these cell death mechanisms, in the present experimental example, primacy hepatocytes isolated from rats were treated with drugs which were clinically shown to result in serious side-effects of hepatocyte toxicity or various chemicals which derive cell death, and the compounds synthesized in the Examples were estimated for their hepatocyte protective effects, after 24-48 h. The substances used to derive hepatocyte death include CCl4, ActD, H2O2, doxorubicin, anti-Fas Ab/Actinomycin D, acetaminophen, EtOH, CdCl2, palmitate, stearate, cyclophosphamide, terfenadine, diclofenac, simvastatin, and adefovir. Primary hepatocytes were isolated using the method of Seglen P O (Experimental Cell Research 74 (1972) pp 450-454). Briefly, hepatocytes were isolated according to the two-step collagenase perfusion method, and dead cells were removed by low speed (500 rpm) centrifugation for 10 min using percoll gradient (Kreamer B L etc, In Vitro Cellular & Developmental Biology 22 (1986) pp 201-211). During this step, the viability of cells was maintained 90% or above. The cells were suspended in HepatoZYME media (Gibco BRL), and the number of cells was counted. 1.5×10^4 cells in 100 μl were placed into the collagen-coated 96-well plate (BD biocoat), and adhered on the bottom for 3-4 h.
In order to assess the hepatocyte protective effect, above adhered cells were pretreated with the Example compounds for 30 min. At this time, the concentration of the Example compounds were serially diluted by 2-fold or 3-fold over 5 steps starting from 30 uM, 10 uM or 1 uM depending on the experiments, and the final concentration of DMSO was adjusted to 0.2%. 30 min after the treatment by compounds, cells were treated by the substances deriving hepatocyte death or hepatotoxic drugs at the concentrations indicated in Table 1. After 24-48 h, the viability of cells was determined to estimate the hepatocyte protective effects. The viability of cells was determined using WST-1 (MK-400, […]) method by the absorbance at 440 nm. Hepatocyte protective effects of the Example compounds were represented by “EC50” which was calculated from measured values. “EC50” herein means the concentration of the compound at which 50% of maximum protective effect is observed in the experiment.
Background: Tetrazolium assays rely on reduction of a dye to a coloured formazan, in cell work by metabolically active cells.
For `c1cc(NC2CCCC2)c2[nH]c(C3=NCCS3)cc2c1` [Example 1, Cyclopentyl-[2-(4,5-dihydro-1,3-thiazol-2-yl)-1H-indol-7-yl]-amine], the pEC50 (usually −log10 of the EC50, conventionally taken in molar units) was under 6.00.

Regarding `OC[C@@H]1CSC(c2cc3cccc(NC4CCCC4)c3[nH]2)=N1` [Example 2, [(R)-2-(7-cyclopentylamino-1H-indol-2-yl)-4,5-dihydro-1,3-thiazol-4-yl]-methanol], the pEC50 was 7.00.

On to `OCc1cc(NC2CCCC2)c2[nH]c(C3=N[C@H](CO)CS3)cc2c1` [Example 6, (R)-2-[7-cyclopentylamino-5-(hydroxymethyl)-1H-indol-2-yl]-4,5-dihydro-thiazol-4-yl-methanol], for which the pEC50 is 5.31.

Turning to `c1cc(NC2CCNCC2)c2[nH]c(C3=NCCS3)cc2c1` [Example 7, [2-(4,5-Dihydro-thiazol-2-yl)-1H-indol-7-yl]-piperidin-4-yl-amine], the pEC50 is 5.93.

As to `Cc1cc(NCC2CCOCC2)c2[nH]c(C3=N[C@H](CC(=O)O)CS3)cc2c1` [Example 8, [(R)-2-(5-methyl-7-(tetrahydropyran-4-yl)methylamino-1H-indol-2-yl)-4,5-dihydro-thiazol-4-yl]-acetic acid], the pEC50 is 6.39.

On to `Cc1cc(NC2CCN(C(=O)C(F)(F)F)CC2)c2[nH]c(C3=N[C@@H](CC(=O)O)CS3)cc2c1` [Example 9, [(S)-2-(5-methyl-7-(1-trifluoroacetylpiperidin-4-yl)amino-1H-indol-2-yl)-4,5-dihydro-thiazol-4-yl]-acetic acid], for which the pEC50 was under 5.70.

For `O=C(O)C[C@H]1CSC(c2cc3cccc(NCC4CCCCO4)c3[nH]2)=N1` (stereo partly drawn) [Example 10, 2-[(S)-2-(7-(tetrahydropyran-2-yl)methylamino-1H-indol-2-yl)-4,5-dihydro-thiazol-4-yl]-acetic acid], the pEC50 was 6.22.

With `O=C(O)C[C@H]1CSC(c2cc3cccc(NC4CCOCC4)c3[nH]2)=N1` [Example 11, [(S)-2-(7-(tetrahydropyran-4-yl)amino-1H-indol-2-yl)-4,5-dihydro-thiazol-4-yl]-acetic acid], the pEC50 was 5.55.

On to `O=C(O)C[C@H]1CSC(c2cc3cccc(NCC4CCOCC4)c3[nH]2)=N1` [Example 12, [(S)-2-(7-(tetrahydropyran-4-yl)methylamino-1H-indol-2-yl)-4,5-dihydro-thiazol-4-yl]-acetic acid], for which the pEC50 was 5.49.

In the case of `CC(=O)N1CCC(Nc2cc(C)cc3cc(C4=N[C@@H](CC(=O)O)CS4)[nH]c23)C1` (stereo partly drawn) [Example 13, [(S)-2-(5-methyl-7-(1-acetylpyrrolidin-3-yl)amino-1H-indol-2-yl)-4,5-dihydro-thiazol-4-yl]-acetic acid], the pEC50 was 5.95.

On to `O=C(O)C[C@@H]1CSC(c2cc3cc(Oc4ccccc4)cc(NCC4CCOCC4)c3[nH]2)=N1` [Example 15, [(R)-2-(5-phenoxy-7-(tetrahydropyran-4-yl)methylamino-1H-indol-2-yl)-4,5-dihydro-thiazol-4-yl]-acetic acid], for which the pEC50 was 6.22.

As to `O=C(O)C[C@H]1CSC(c2cc3cc(Oc4ccccc4)cc(NC4CCOCC4)c3[nH]2)=N1` [Example 16, [(S)-2-(5-phenoxy-7-(tetrahydropyran-4-yl)amino-1H-indol-2-yl)-4,5-dihydro-thiazol-4-yl]-acetic acid], the pEC50 is 5.89.

In the case of `O=C(O)C[C@H]1CSC(c2cc3cc(Cl)cc(NCC4CCOCC4)c3[nH]2)=N1` [Example 18, [(S)-2-(5-chloro-7-(tetrahydropyran-4-yl)methylamino-1H-indol-2-yl)-4,5-dihydro-thiazol-4-yl]-acetic acid], the pEC50 was 5.62.

As to `Cc1cc(NC2CCC2)c2[nH]c(C3=N[C@@H](CC(=O)O)CS3)cc2c1` [Example 19, [(S)-2-(5-methyl-7-cyclobutylamino-1H-indol-2-yl)-4,5-dihydro-thiazol-4-yl]-acetic acid], the pEC50 was 6.46.

For the molecule `Cc1cc(NC2CCOC2)c2[nH]c(C3=N[C@@H](CC(=O)O)CS3)cc2c1` (stereo partly drawn) [Example 20, [(S)-2-(5-methyl-7-(tetrahydrofuran-3-yl)amino-1H-indol-2-yl)-4,5-dihydro-thiazol-4-yl]-acetic acid], the pEC50 was 5.24.

`Cc1cc(NCC2CC2)c2[nH]c(C3=N[C@@H](CC(=O)O)CS3)cc2c1` [Example 21, [(S)-2-(5-methyl-7-cyclopropylmethylamino-1H-indol-2-yl)-4,5-dihydro-thiazol-4-yl]-acetic acid]: the pEC50 was 6.52.

For the molecule `Cc1cc(NCC2CCCC2)c2[nH]c(C3=N[C@@H](CC(=O)O)CS3)cc2c1` [Example 23, [(S)-2-(5-methyl-7-cyclopentylmethylamino-1H-indol-2-yl)-4,5-dihydro-thiazol-4-yl]-acetic acid], the pEC50 was 6.85.

On to `Cc1cc(NC2CCOCC2)c2[nH]c(C3=N[C@@H](CC(=O)O)CS3)cc2c1` [Example 25, [(S)-2-(5-methyl-7-(tetrahydropyran-4-yl)amino-1H-indol-2-yl)-4,5-dihydro-thiazol-4-yl]-acetic acid], for which the negative logarithm of the EC50 (pEC50) was 6.12.

As for `Cc1cc(NC2CCCC2)c2[nH]c(C3=N[C@@H](CC(=O)O)CS3)cc2c1` [Example 26, [(S)-2-(5-methyl-7-cyclopentylamino-1H-indol-2-yl)-4,5-dihydro-thiazol-4-yl]-acetic acid], the pEC50 was 6.70.

On to `CC1CSC(c2cc3cccc(NC4CCOCC4)c3[nH]2)=N1` (stereo not shown) [Example 32, (Tetrahydropyran-4-yl)-[2-(4,5-dihydro-4-methyl-thiazol-2-yl)-1H-indol-7-yl]-amine], for which the pEC50 was 5.67.

For the molecule `CN(C)Cc1cc(NC2CCCC2)c2[nH]c(C3=N[C@H](CO)CS3)cc2c1` [Example 34, [(R)-2-(5-(dimethylamino)methyl-7-cyclopentylamino-1H-indol-2-yl)-4,5-dihydro-thiazol-4-yl]-methanol], the pEC50 was 5.25.

As to `CC(=O)Nc1cc(NC2CCCC2)c2[nH]c(C3=N[C@H](CO)CS3)cc2c1` [Example 38, [(R)-2-(5-acetylamino-7-cyclopentylamino-1H-indol-2-yl)-4,5-dihydro-thiazol-4-yl]-methanol], the pEC50 was 5.70.

For `COC(=O)C[C@@H]1CSC(c2cc3cc(CN4CCCC4)cc(NC4CCCC4)c3[nH]2)=N1` [Example 40, [(R)-2-(5-(pyrrolidin-1-yl)methyl-7-cyclopentylamino-1H-indol-2-yl)-4,5-dihydro-thiazol-4-yl]-acetic acid methyl ester], the pEC50 is 4.81.

`CC(=O)N1CC[C@@H](Nc2cccc3cc(C4=N[C@H](CO)CS4)[nH]c23)C1` [Example 43, {(R)-2-[7-((3R)-1-acetylpyrrolidin-3-yl)amino-1H-indol-2-yl]-4,5-dihydro-1,3-thiazol-4-yl}-methanol]: the pEC50 is 5.00 to 6.00.

Regarding `CCOc1cc(NC2CCCC2)c2[nH]c(C3=N[C@@H](CC(=O)OC)CS3)cc2c1` [Example 46, [(S)-2-(5-ethoxy-7-cyclopentylamino-1H-indol-2-yl)-4,5-dihydro-thiazol-4-yl]-acetic acid methyl ester], the pEC50 is 6.40.

For the molecule `CCOc1cc(NC2CCCC2)c2[nH]c(C3=N[C@@H](CC(=O)O)CS3)cc2c1` [Example 47, [(S)-2-(5-ethoxy-7-cyclopentylamino-1H-indol-2-yl)-4,5-dihydro-thiazol-4-yl]-acetic acid], the pEC50 is 6.44.

For the molecule `O=C(O)C[C@H]1CSC(c2cc3cc(Oc4ccccc4)cc(NC4CCCC4)c3[nH]2)=N1` [Example 50, [(S)-2-(5-phenoxy-7-cyclopentylamino-1H-indol-2-yl)-4,5-dihydro-thiazol-4-yl]-acetic acid], the pEC50 is 6.60.

On to `OC[C@@H]1CSC(c2cc3cccc(NC4CCOCC4)c3[nH]2)=N1` [Example 51, [(R)-2-(7-(tetrahydropyran-4-yl)amino-1H-indol-2-yl)-4,5-dihydro-thiazol-4-yl]-methanol], for which the pEC50 was 6.22.

The test is the same for the next values; noted with them: primary rat hepatocytes pretreated with compound for 30 min, then doxorubicin; viability by WST-1 after 24-48 h.
Regarding `Cc1cc(NC2CCOCC2)c2[nH]c(C3=N[C@@H](CCO)CS3)cc2c1` [Example 24, [(S)-2-(5-methyl-7-(tetrahydropyran-4-yl)amino-1H-indol-2-yl)-4,5-dihydro-thiazol-4-yl]-ethanol], the negative logarithm of the EC50 (pEC50) was 6.89.

On to `CN(c1cc(F)cc2cc(C3=N[C@H](CO)CS3)[nH]c12)C1CCCC1` [Example 45, {(R)-2-[7-(methyl-cyclopentyl)amino-5-fluoro-1H-indol-2-yl]-4,5-dihydro-1,3-thiazol-4-yl}-methanol], for which the pEC50 is 5.88.

As to `CCOc1cc(NC2CCCC2)c2[nH]c(C3=N[C@@H](CCO)CS3)cc2c1` [Example 48, [(S)-2-(5-ethoxy-7-cyclopentylamino-1H-indol-2-yl)-4,5-dihydro-thiazol-4-yl]-ethanol], the pEC50 is 6.70.
